Results taken from patent US10112929B2, “Lactams as inhibitors of rock” (BRISTOL-MYERS SQUIBB COMPANY, priority 2015, dated 2018).
Where two headings read alike, the source gives them in different places. Values belong to the compound of their own block, whether it stands above or below them.

Legend:
[1] = test system: spontaneously hypertensive rat, renal hypertensive rat and deoxycortisone acetate salt hypertensive rat models; conditions: cited from earlier work
[2] = test system: neointimal formation in rats; conditions: cited from earlier work
[3] = test system: Dahl salt-sensitive rats; conditions: rat, in vivo; cited from earlier work
[4] = test system: rat stroke model; conditions: in vivo; cited from earlier work
[5] = test system: porcine model of IL-1 beta-induced coronary stenosis; conditions: long term treatment; cited from earlier work
[6] = molecular target: ROCK2 (Homo sapiens (Human), UniProt O75116);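 also: rho kinase enzyme reaction halted with EDTA, phospho- and non-phospho peptide separated for read-out, kinase activity inhibition derived across a dose-response series, DMSO under 2%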
Sequence of ROCK2 (O75116 whole entry, species assumed): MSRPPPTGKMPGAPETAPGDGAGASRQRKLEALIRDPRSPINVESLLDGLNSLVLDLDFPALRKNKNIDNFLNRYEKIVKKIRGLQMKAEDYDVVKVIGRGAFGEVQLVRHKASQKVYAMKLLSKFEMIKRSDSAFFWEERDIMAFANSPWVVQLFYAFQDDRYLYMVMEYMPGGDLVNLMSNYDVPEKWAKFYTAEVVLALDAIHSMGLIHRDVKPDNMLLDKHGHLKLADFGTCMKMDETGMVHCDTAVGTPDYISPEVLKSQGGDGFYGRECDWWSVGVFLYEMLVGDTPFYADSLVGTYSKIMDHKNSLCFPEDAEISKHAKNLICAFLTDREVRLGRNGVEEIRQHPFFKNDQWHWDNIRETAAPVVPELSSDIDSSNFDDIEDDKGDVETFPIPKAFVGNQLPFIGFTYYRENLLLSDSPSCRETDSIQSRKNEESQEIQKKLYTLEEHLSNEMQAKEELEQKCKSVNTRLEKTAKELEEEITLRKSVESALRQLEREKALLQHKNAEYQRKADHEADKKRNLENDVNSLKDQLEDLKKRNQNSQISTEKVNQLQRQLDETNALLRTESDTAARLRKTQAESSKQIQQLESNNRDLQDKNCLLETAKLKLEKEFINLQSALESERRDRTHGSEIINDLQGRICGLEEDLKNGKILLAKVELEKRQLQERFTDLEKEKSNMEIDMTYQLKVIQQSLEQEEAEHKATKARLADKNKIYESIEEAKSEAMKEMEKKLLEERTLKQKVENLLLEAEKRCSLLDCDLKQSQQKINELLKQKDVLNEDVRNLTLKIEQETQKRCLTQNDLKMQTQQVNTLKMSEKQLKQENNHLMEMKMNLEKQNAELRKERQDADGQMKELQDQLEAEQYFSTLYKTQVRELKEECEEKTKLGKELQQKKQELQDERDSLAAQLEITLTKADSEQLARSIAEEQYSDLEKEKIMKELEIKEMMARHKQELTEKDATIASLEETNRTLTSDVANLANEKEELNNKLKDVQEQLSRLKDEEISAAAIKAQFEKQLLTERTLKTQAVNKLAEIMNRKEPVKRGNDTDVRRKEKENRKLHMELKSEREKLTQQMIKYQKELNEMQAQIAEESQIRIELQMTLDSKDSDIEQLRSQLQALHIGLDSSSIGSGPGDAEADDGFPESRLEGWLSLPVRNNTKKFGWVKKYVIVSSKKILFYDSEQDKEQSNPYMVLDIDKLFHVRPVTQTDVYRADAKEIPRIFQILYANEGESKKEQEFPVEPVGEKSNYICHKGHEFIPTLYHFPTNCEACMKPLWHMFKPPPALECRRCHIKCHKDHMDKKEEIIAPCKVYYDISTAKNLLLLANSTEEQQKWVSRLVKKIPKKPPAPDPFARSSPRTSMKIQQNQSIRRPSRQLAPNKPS

SMILES: C[C@@H](N)[C@H]1CC[C@H](C(=O)Nc2ccncc2)CC1 [Example Y-27632]
blood pressure ([1]; control rats): only a minor effect on blood pressure
blood pressure ([1]; three rat models of hypertension): significantly decrease blood pressure
neointimal formation [2]: inhibited neointimal formation
ventricular hypertrophy, fibrosis and function [3]: improve ventricular hypertrophy, fibrosis and function

SMILES: O=S(=O)(c1cccc2cnccc12)N1CCCNCC1 [fasudil]
infarct size and neurologic deficit [4]: reduce both the infarct size and neurologic deficit
coronary constrictive remodeling [5]: promote a regression of coronary constrictive remodeling
coronary stenosis [5]: progressively reduce coronary stenosis

SMILES: COc1ccc(NC2CCN(c3ccc(-c4cn[nH]c4)cc3)C2=O)cc1F (single isomer, unassigned) [Example 14, 1-(4-(1H-pyrazol-4-yl)phenyl)-3-((3-fluoro-4-methoxyphenyl)amino)pyrrolidin-2-one]
IC50 [6]: 100 to 2200 nM

SMILES: CCOc1cc(N2CCC(Nc3cc(OC)ccc3F)C2=O)ccc1-c1cn[nH]c1 (single isomer, unassigned) [Example 41, 1-(3-ethoxy-4-(1H-pyrazol-4-yl)phenyl)-3-((2-fluoro-5-methoxyphenyl)amino)pyrrolidin-2-one]
IC50 [6]: 100 to 2200 nM

The remaining lines, values ahead:

IC50 [6]: < 10 nM
SMILES: COc1cccc(NC2CCN(c3ccc(-c4cn[nH]c4)cn3)C2=O)c1 (single isomer, unassigned) [Example 86, 1-(5-(1H-pyrazol-4-yl)pyridin-2-yl)-3-((3-methoxyphenyl)amino)pyrrolidin-2-one]

IC50 [6]: < 10 nM
SMILES: COc1cccc(NC2CCN(c3ccc(-c4cn[nH]c4)c(OC)c3)C2=O)c1 (single isomer, unassigned) [Example 75, 1-(3-methoxy-4-(1H-pyrazol-4-yl)phenyl)-3-((3-methoxyphenyl)amino)pyrrolidin-2-one]

IC50 [6]: < 10 nM
SMILES: COc1cc(F)cc(NC2CCN(c3ccc(-c4cn[nH]c4)c(OC)n3)C2=O)c1 (single isomer, unassigned) [Example 199, 3-((3-fluoro-5-methoxyphenyl)amino)-1-(6-methoxy-5-(1H-pyrazol-4-yl)pyridin-2 yl)pyrrolidin-2-one]
